# In US10463644B2, “Uses of sesquiterpene lactone compounds and their derivatives in drugs preparation” (ACCENDATECH, priority 2013, dated 2019):
# Where two headings read alike, the source gives them in different places.
# Test system: cancer cells
# Assay: Survival rate of cancer cells after test compound is added (flow cytometry, Annexin V-FITC/PI, clinical specimen)
# Assay type: cell-based, patient
# Details: Homo sapiens, 18 h, read-out: Survival rate (%) All cells (Stem cells and ordinary cells)
# Procedure, shortened: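 Patient tumour or leukaemia cells, identified by cancer-specific stem-cell markers (CD34+/CD38+ for AML), are treated with compound for 18 hours in serum-free IMDM. Apoptosis is then measured as Annexin V-FITC/PI staining by flow cytometry.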
# [1] = Head and neck squamous cell carcinomas
structure (smiles),measurement,setting,value
C=C1C(=O)O[C@@H]2[C@@H]3[C@@H](CCC34CC4)C3(CC[C@@H]12)CC3 [Compound 26],viability at 10 µM,AML,93%
same,viability at 20 µM,AML,85%
same,viability at 10 µM,Brain glioma,88%
same,viability at 20 µM,Brain glioma,85%
same,viability at 10 µM,Brain tumor,89%
same,viability at 20 µM,Brain tumor,85%
same,viability at 10 µM,Breast cancer,89%
same,viability at 20 µM,Breast cancer,86%
same,viability at 10 µM,CLL,93%
same,viability at 20 µM,CLL,85%
same,viability at 10 µM,CML,92%
same,viability at 20 µM,CML,79%
same,viability at 10 µM,Children hepatoblastoma,93%
same,viability at 20 µM,Children hepatoblastoma,86%
same,viability at 10 µM,Colon adenocarcinoma,91%
same,viability at 20 µM,Colon adenocarcinoma,89%
same,viability at 10 µM,Colorectal cancer,87%
same,viability at 20 µM,Colorectal cancer,81%
same,viability at 10 µM,Gastric cancer,88%
same,viability at 20 µM,Gastric cancer,84%
same,viability at 10 µM,Gastrointestinal tumor,93%
same,viability at 20 µM,Gastrointestinal tumor,88%
same,viability at 10 µM,Glioma,94%
same,viability at 20 µM,Glioma,87%
same,viability at 10 µM,[1],91%
same,viability at 20 µM,[1],88%
same,viability at 10 µM,Laryngeal cancer,88%
same,viability at 20 µM,Laryngeal cancer,82%
same,viability at 10 µM,Liver cancer,89%
same,viability at 20 µM,Liver cancer,87%
same,viability at 10 µM,Lung adenocarcinoma,91%
same,viability at 20 µM,Lung adenocarcinoma,87%
same,viability at 10 µM,Lung cancer,88%
same,viability at 20 µM,Lung cancer,84%
same,viability at 10 µM,Malignant melanoma,88%
same,viability at 20 µM,Malignant melanoma,86%
same,viability at 10 µM,Nasopharynx cancer,94%
same,viability at 20 µM,Nasopharynx cancer,81%
same,viability at 10 µM,Ovarian cancer,91%
same,viability at 20 µM,Ovarian cancer,84%
same,viability at 10 µM,Pancreatic cancer,90%
same,viability at 20 µM,Pancreatic cancer,86%
same,viability at 10 µM,Prostate cancer,92%
same,viability at 20 µM,Prostate cancer,89%
same,viability at 10 µM,Retinoblastoma,91%
same,viability at 20 µM,Retinoblastoma,85%
same,viability at 10 µM,Skin cancer,94%
same,viability at 20 µM,Skin cancer,87%
